Key:
Format in all cases: functional
Mus musculus [1] = experiment: Ex vivo inhibition of EST31 in C57BL/6 mouse liver at 1 mg/kg, ip after 1 hr relative to vehicle-treated control; conditions: C57BL/6, Liver, route intraperitoneal
Mus musculus [2] = experiment: Ex vivo inhibition of EST31 in C57BL/6 mouse kidney at 1 mg/kg, ip after 1 hr relative to vehicle-treated control; conditions: C57BL/6, Kidney, route intraperitoneal
Mus musculus [3] = experiment: Ex vivo inhibition of CE6 in C57BL/6 mouse liver at 1 mg/kg, ip after 1 hr relative to vehicle-treated control; conditions: C57BL/6, Liver, route intraperitoneal
Mus musculus [4] = experiment: Ex vivo inhibition of CE6 in C57BL/6 mouse kidney at 1 mg/kg, ip after 1 hr relative to vehicle-treated control; conditions: C57BL/6, Kidney, route intraperitoneal

Measured: inhibition in vivo at 1 mg/kg

C#CCCCCCCCCCNC(=O)Oc1cccc(-c2cccc(C(N)=O)c2)c1
< 20%: all assays above

Source: ChEMBL document CHEMBL3098115, “Drug discovery considerations in the development of covalent inhibitors” (2014)
